Measured values reported in patent US8765728B2, “[1,5]-diazocin derivatives” (MelliTech, priority 2009, dated 2014).

What follows are compounds tested on Min6 cell (assay: Insulin secretion response of beta cell line to formula I compounds (insulin ELISA)). Conditions: rank according to % increase versus control at most effective dose.
Assay type: cell-based
Description: The secretory responses of beta cell lines to glucose were tested as described in Merglen et al. Endocrinology, (2004) 145(2):667-78.
Briefly, after incubation with compounds from formula I or control vehicle, cells were maintained for 2 hours in glucose-free culture medium. The cells were then washed twice and preincubated for 30 minutes at 37° C. in glucose-free Krebs-Ringer bicarbonate HEPES buffer (KRBH: 135 mM NaCl, 3.6 mM KCl, 5 mM NaHCO3, 0.5 mM NaH2PO4, 0.5 mM MgCl2, 1.5 mM CaCl2, and 10 mM HEPES, pH 7.4). BSA (0.1%) was added as an insulin carrier. Cells were subsequently washed with glucose-free KRBH and then incubated for 30 minutes at 37° C. in KRBH containing different concentrations of glucose. The reaction was stopped by placing the plates on ice; supernatants were collected to determine insulin secretion and cells were used for intracellular insulin content following acid-ethanol extraction. Insulin was measured by ELISA (Linco) according to the manufacturer's instructions.

Row | Compound | Insulin secretion (Min6 cell) Range 1 to 5
1 | COc1ccc2c(c1)CN(C1CC1)C(=O)CCN2CC(O)c1ccc(N2CCCC2)cc1 (stereo not shown) [Compound 28, 5-cyclopropyl-1-(2-hydroxy-2-(4-(pyrrolidin-1-yl)phenyl)ethyl)-8-methoxy-2,3,5,6-tetrahydrobenzo[b][1,5]diazocin-4(1H)-one] | 3 (3: 120-140% of control)
2 | COc1ccc2c(c1)CN(C1CC1)C(=O)CCN2CC(O)c1ccc2c(c1)OCCO2 (stereo not shown) [Compound 29, 5-cyclopropyl-1-(2-(2,3-dihydrobenzo[b][1,4]dioxin-6-yl)-2-hydroxyethyl)-8-methoxy-2,3,5,6-tetrahydrobenzo[b][1,5]diazocin-4(1H)-one] | 2 (2: 110-120% of control)
3 | COc1cccc(C(O)CN2CCC(=O)N(C3CC3)Cc3cc(OC)ccc32)c1 (stereo not shown) [Compound 30, 5-cyclopropyl-1-(2-hydroxy-2-(3-methoxyphenyl)ethyl)-8-methoxy-2,3,5,6-tetrahydrobenzo[b][1,5]diazocin-4(1H)-one] | 1 (1: 90-110% of control)
4 | COc1ccc2c(c1)CN(C1CC1)C(=O)CCN2CC(O)c1cccc(F)c1 (stereo not shown) [Compound 31, 5-cyclopropyl-1-(2-(3-fluorophenyl)-2-hydroxyethyl)-8-methoxy-2,3,5,6-tetrahydrobenzo[b][1,5]diazocin-4(1H)-one] | 1 (1: 90-110% of control)
5 | COc1ccc(C(O)CN2CCC(=O)N(C3CC3)Cc3cc(OC)ccc32)cc1 (stereo not shown) [Compound 32, 5-cyclopropyl-1-(2-hydroxy-2-(4-methoxyphenyl)ethyl)-8-methoxy-2,3,5,6-tetrahydrobenzo[b][1,5]diazocin-4(1H)-one] | 3 (3: 120-140% of control)
6 | COc1ccc2c(c1)CN(C1CC1)C(=O)CCN2CC(O)c1ccc(OC(F)(F)F)cc1 (stereo not shown) [Compound 33, 5-cyclopropyl-1-(2-hydroxy-2-(4-(trifluoromethoxy)phenyl)ethyl)-8-methoxy-2,3,5,6-tetrahydrobenzo[b][1,5]diazocin-4(1H)-one] | 2 (2: 110-120% of control)
7 | COc1ccc2c(c1)CN(C1CC1)C(=O)CCN2CC(O)c1ccc(F)c(F)c1 (stereo not shown) [Compound 34, 5-cyclopropyl-1-(2-(3,4-difluorophenyl)-2-hydroxyethyl)-8-methoxy-2,3,5,6-tetrahydrobenzo[b][1,5]diazocin-4(1H)-one] | 1 (1: 90-110% of control)
8 | O=C(CN1CCC(=O)N(C2CC2)Cc2cc(F)ccc21)c1ccccc1 [Compound 35, 5-cyclopropyl-8-fluoro-1-(2-oxo-2-phenylethyl)-2,3,5,6-tetrahydrobenzo[b][1,5]diazocin-4(1H)-one] | 1 (1: 90-110% of control)
9 | COc1ccccc1C(=O)CN1CCC(=O)N(C2CC2)Cc2cc(F)ccc21 [Compound 36, 5-cyclopropyl-8-fluoro-1-(2-(2-methoxyphenyl)-2-oxoethyl)-2,3,5,6-tetrahydrobenzo[b][1,5]diazocin-4(1H)-one] | 2 (2: 110-120% of control)
10 | COc1cccc(C(=O)CN2CCC(=O)N(C3CC3)Cc3cc(F)ccc32)c1 [Compound 37, 5-cyclopropyl-8-fluoro-1-(2-(3-methoxyphenyl)-2-oxoethyl)-2,3,5,6-tetrahydrobenzo[b][1,5]diazocin-4(1H)-one] | 4 (4: 140-170% of control)
11 | COc1ccc(C(=O)CN2CCC(=O)N(C3CC3)Cc3cc(F)ccc32)cc1 [Compound 38, 5-cyclopropyl-8-fluoro-1-(2-(4-methoxyphenyl)-2-oxoethyl)-2,3,5,6-tetrahydrobenzo[b][1,5]diazocin-4(1H)-one] | 1 (1: 90-110% of control)
12 | COc1ccc(OC)c(C(=O)CN2CCC(=O)N(C3CC3)Cc3cc(F)ccc32)c1 [Compound 39, 5-cyclopropyl-1-(2-(2,5-dimethoxyphenyl)-2-oxoethyl)-8-fluoro-2,3,5,6-tetrahydrobenzo[b][1,5]diazocin-4(1H)-one] | 3 (3: 120-140% of control)
13 | O=C(CN1CCC(=O)N(C2CC2)Cc2cc(F)ccc21)c1ccc(F)cc1 [Compound 40, 5-cyclopropyl-8-fluoro-1-(2-(4-fluorophenyl)-2-oxoethyl)-2,3,5,6-tetrahydrobenzo[b][1,5]diazocin-4(1H)-one] | 3 (3: 120-140% of control)
14 | O=C(CN1CCC(=O)N(C2CC2)Cc2cc(F)ccc21)c1cccc(F)c1 [Compound 41, 5-cyclopropyl-8-fluoro-1-(2-(3-fluorophenyl)-2-oxoethyl)-2,3,5,6-tetrahydrobenzo[b][1,5]diazocin-4(1H)-one] | 3 (3: 120-140% of control)
15 | O=C(CN1CCC(=O)N(C2CC2)Cc2cc(F)ccc21)c1ccc(OC(F)(F)F)cc1 [Compound 42, 5-cyclopropyl-8-fluoro-1-(2-oxo-2-(4-(trifluoromethoxy)phenyl)ethyl)-2,3,5,6-tetrahydrobenzo[b][1,5]diazocin-4(1H)-one] | 1 (1: 90-110% of control)
16 | O=C(CN1CCC(=O)N(C2CC2)Cc2cc(F)ccc21)c1ccc(F)c(F)c1 [Compound 43, 5-cyclopropyl-1-(2-(3,4-difluorophenyl)-2-oxoethyl)-8-fluoro-2,3,5,6-tetrahydrobenzo[b][1,5]diazocin-4(1H)-one] | 2 (2: 110-120% of control)
17 | O=C(CN1CCC(=O)N(C2CC2)Cc2cc(F)ccc21)c1ccc(Cl)cc1 [Compound 44, 1-(2-(4-chlorophenyl)-2-oxoethyl)-5-cyclopropyl-8-fluoro-2,3,5,6-tetrahydrobenzo[b][1,5]diazocin-4(1H)-one] | 1 (1: 90-110% of control)
18 | COc1ccc(OC)c(C(O)CN2CCC(=O)N(C3CC3)Cc3cc(F)ccc32)c1 (stereo not shown) [Compound 45, 5-cyclopropyl-1-(2-(2,5-dimethoxyphenyl)-2-hydroxyethyl)-8-fluoro-2,3,5,6-tetrahydrobenzo[b][1,5]diazocin-4(1H)-one] | 1 (1: 90-110% of control)
19 | O=C1CCN(CC(O)c2ccc(F)cc2)c2ccc(F)cc2CN1C1CC1 (stereo not shown) [Compound 46, 5-cyclopropyl-8-fluoro-1-(2-(4-fluorophenyl)-2-hydroxyethyl)-2,3,5,6-tetrahydrobenzo[b][1,5]diazocin-4(1H)-one] | 2 (2: 110-120% of control)
20 | O=C1CCN(CC(O)c2cccc(F)c2)c2ccc(F)cc2CN1C1CC1 (stereo not shown) [Compound 47, 5-cyclopropyl-8-fluoro-1-(2-(3-fluorophenyl)-2-hydroxyethyl)-2,3,5,6-tetrahydrobenzo[b][1,5]diazocin-4(1H)-one] | 2 (2: 110-120% of control)
21 | O=C1CCN(CC(O)c2ccc(OC(F)(F)F)cc2)c2ccc(F)cc2CN1C1CC1 (stereo not shown) [Compound 48, 5-cyclopropyl-8-fluoro-1-(2-hydroxy-2-(4-(trifluoromethoxy)phenyl)ethyl)-2,3,5,6-tetrahydrobenzo[b][1,5]diazocin-4(1H)-one] | 2 (2: 110-120% of control)
22 | O=C1CCN(CC(O)c2ccc(F)c(F)c2)c2ccc(F)cc2CN1C1CC1 (stereo not shown) [Compound 49, 5-cyclopropyl-1-(2-(3,4-difluorophenyl)-2-hydroxyethyl)-8-fluoro-2,3,5,6-tetrahydrobenzo[b][1,5]diazocin-4(1H)-one] | 5 (5: >170% of control)
23 | O=C1CCN(CC(O)c2ccc(Cl)cc2)c2ccc(F)cc2CN1C1CC1 (stereo not shown) [Compound 50, 1-(2-(4-chlorophenyl)-2-hydroxyethyl)-5-cyclopropyl-8-fluoro-2,3,5,6-tetrahydrobenzo[b][1,5]diazocin-4(1H)-one] | 2 (2: 110-120% of control)
24 | COc1ccc(OCC(O)CN2CCC(=O)N(C3CC3)Cc3cc(OC)ccc32)cc1 (stereo not shown) [Compound 51, 5-cyclopropyl-1-(2-hydroxy-3-(4-methoxyphenoxy)propyl)-8-methoxy-2,3,5,6-tetrahydrobenzo[b][1,5]diazocin-4(1H)-one] | 2 (2: 110-120% of control)
25 | O=C1CCN(CC(O)COc2ccccc2)c2ccc(F)cc2CN1C1CC1 (stereo not shown) [Compound 52, 5-cyclopropyl-8-fluoro-1-(2-hydroxy-3-phenoxypropyl)-2,3,5,6-tetrahydrobenzo[b][1,5]diazocin-4(1H)-one] | 1 (1: 90-110% of control)
26 | COc1ccc(OCC(O)CN2CCC(=O)N(C3CC3)Cc3cc(F)ccc32)cc1 (stereo not shown) [Compound 53, 5-cyclopropyl-8-fluoro-1-(2-hydroxy-3-(4-methoxyphenoxy)propyl)-2,3,5,6-tetrahydrobenzo[b][1,5]diazocin-4(1H)-one] | 1 (1: 90-110% of control)
27 | COc1ccc2c(c1)CNC(=O)CCN2 [Compound 54, 8-methoxy-2,3,5,6-tetrahydrobenzo[b][1,5]diazocin-4(1H)-one] | 1 (1: 90-110% of control)
28 | O=C(CN1CCC(=O)N(C2CC2)Cc2cc(F)ccc21)c1ccc2c(c1)OCCO2 [Compound 55, 5-cyclopropyl-1-(2-(2,3-dihydrobenzo[b][1,4]dioxin-6-yl)-2-oxoethyl)-8-fluoro-2,3,5,6-tetrahydrobenzo[b][1,5]diazocin-4(1H)-one] | 2 (2: 110-120% of control)
